Measurements as given in patent publication US20110016537A1, “Cellular model of tauopathies for lead identification and drug discovery” (Georg-August-Universitat Gottingen Stifung offentl, priority 2003, published 2011).

Key:
[1] = tested on: SHSY5Y neuroblastoma cells; assay: Apoptosis detection (TUNEL, activated caspase-3 immunolabeling) in SHSY5Y cells; format: cell-based, human; conditions: for cells showing signs of apoptosis (TUNEL): 48 h. post transfection
Excerpt: (§1) In order to analyse apoptosis induction in SHSY5Y neuroblastoma cells transfected with wild-type and triple mutant tau, the TUNEL method was used to label fragmented nuclear DNA, a characteristic marker of apoptosis. This was combined with the assessment of a second pathomorphological criteria: shrunken cell body with sparse cytosol and rounded cell morphology. Such a combination of criteria is considered sufficient to identify positively the occurrence of apoptosis (Stadelmann and Lassmann (2000) Cell Tissue Res. 301, 19-31). Since 48 hours after transfection a significant decrease in cell number and apparent cell degeneration is observed, this timepoint was chosen for the comparative analysis. At this timepoint the mode of degeneration, if apoptotic, should have been obvious. […] In FIG. 5a, apoptotic and non-apoptotic M123-transfected cells are shown, as well as a positive 50 nM staurosporin-treated neuroblastoma control. […] Activated caspase-3 immunolabeling, however, detected 18.66±0.93% apoptotic cells in M123 transfected neuroblastoma cells vs. 3.62±1.87% in wild-type transfected cells (p<0.01, Mann-Whitney U-test). The reason for this atypical apoptosis presentation in our system is unknown and awaits further elucidation. Next, in order to assess the real biological significance of apoptosis in the process of cell elimination, specific cell-permeable caspase-3 inhibitor and cytochrome c release inhibitor (both from Calbiochem, Germany) were used. Cells were treated 24 h. post transfection immediately after counting their reference number and incubated with apoptosis inhibitors until 60 h. post transfection in order to cover the time window with the highest decrease in cell number. […]

CHO cells [2] = assay: Morphological aggregate formation after transfection in CHO cells; format: cell-based, Chinese hamster; conditions: 24 hrs post transfection
Experimental: On the contrary—in areas with bulky aggregation a deficit of the normal cytoskeletal configuration was observed. In order to visualize a difference in the biophysical properties of tau and aggregating mutants, FRAP (fluorescent recovery after photobleaching) analysis was performed in CHO-cells 24 hours after transfection, using wild-type tau and the triple (M123) mutant. Tau tagged with GFP represents a perfect tool for aggregation examination in living cells in real time. Apparent differences were found between wild-type tau and the triple mutant.
Transfection of cells was performed, using the Effectene Transfection Kit (Qiagen, Germany) according to the manufacturers instructions. Following addition of 4-8 μl enhancer solution, 0.5-1 μg DNA were incubated with 10 μl Effectene and 85 μl transfection buffer. All plasmids were purified using EndoFree Maxi Kit (Qiagen, Germany).
Confocal imaging was performed with a Leica TCS SP2 confocal system fitted with an AOBS (acousto-optical beam splitter) (Leica, Germany). The objectives used were 63× water or oil immersion; adjustments were as follows: Beam Expander 3, PMT—600-700 V, pinhole 1-1.4 airy disc, zoom—variable. Luminophore excitation was performed with an Argon-ion laser at 488 nm (for GFP), GreNe laser at 543 nm (for Cy3) and HeNe 643 nm (for Cy5).

CHO cells [3] = assay: AT8-detected phosphorylation in CHO cells; format: cell-based, Chinese hamster; conditions: CHO cells (data not shown)
[4] = tested on: SHSY5Y neuroblastoma cells; assay: Cell survival of M123-transfected SHSY5Y cells with apoptosis inhibitors; format: cell-based, human; conditions: inhibitors on M123-transfected cells from 24 h. until 60 h. post transfection
Excerpt: as §1, with “elucidation.” for “elucidation. Next, in order to assess the real biological significance of apoptosis in the process of cell elimination, specific cell-permeable caspase-3 inhibitor and cytochrome c release inhibitor (both from Calbiochem, Germany) were used. Cells were treated 24 h. post transfection immediately after counting their reference number and incubated with apoptosis inhibitors until 60 h. post transfection in order to cover the time window with the highest decrease in cell number.”

[5] = tested on: SHSY5Y neuroblastoma cells; assay: Phosphoepitope immunocytochemistry (AT8, AT100, AT180) in SHSY5Y neuroblastoma cells; format: cell-based, human
Experimental: In order to examine the neurotoxicity of the mutant tau variants in human neuronal cell line, SHSY5Y neuroblastomas were used and the cell number of each preparation at 48 and 72 hours post transfection was normalized to the cell number in the same dish at 24 hours. […] The same effect was observed by the double mutants. Further, the presence of two specific pathological phosphoepitopes was tested using phosphospecific antibodies—AT8 (S202/T205 specific) and AT100 (T212/S214), the latter being exclusively specific for Alzheimer's disease NFTs and generally considered as the only AD-specific antibody by experts in the field of neuropathology. […] In the mutants (especially in the double and triple mutants) there was a very strong AT8 labeling, reaching 83.24±5.45% in M123 (FIG. 4c). […] This was accompanied by early phosphorylation, colocalizing with the initial tau aggregates. […] This mutant completely lacked a fragment which contains most phosphorylation sites of the projection domain (including the corresponding sites for AT8, AT100, AT180, AT270), thus confirming the independence of aggregation and phosphorylation. […] Another phosphoepitope that is highly specific for AD—T212/S214 (recognized by AT100 antibody), was present especially in double and triple mutants (FIG. 4d). In contrast to AT8, this immunolabeling was not observed in all aggregates, but only in those with bulky rounded or oval shape. […] Obviously, the formation of the T212/S214 phosphoepitope requires, apart from S202/T205 phosphoepitope formation (Schneider et al. (1999) Biochemistry 38, 3549-3558), also a specific conformational modification, apparently achieved with increase of mutant epitope number. In the M123 mutant 22.13±2.87% were also AT180 immunopositive (phosphoepitope T231) vs. none in wild-type tau transfectants (not shown). In order to assess the relative contribution of the aggregation, S202/T205 and T212/S214 phosphorylation to cell toxicity, multiple correlation analyses were performed. […]

## CN[C@@H]1C[C@H]2O[C@@](C)([C@@H]1OC)n1c3ccccc3c3c4c(c5c6ccccc6n2c5c31)C(=O)NC4 [staurosporin]
[1]
  cells showing signs of apoptosis (TUNEL): TUNEL-positive nuclei

## wild-type tau: wild-type human tau 441, SEQ ID NO.:25, used as control [reference compound]
CHO cells [2]
  formation of morphologically apparent aggregates: normal MT (microtubule) association without aggregates
CHO cells [3]
  AT8-detected phosphorylation: only a slight pattern
[4]
  cell survival: 87.86±12.4%
[5]
  AT100 (T212/S214) immunolabeling: did not label
  AT180 (phosphoepitope T231) immunopositive cells: none
[5]; 36 h. after transfection
  AT8 (S202/T205) immunolabeled cells: 9.17±2.3%
[1]
  apoptotic cells by activated caspase-3 immunolabeling: 3.62±1.87%
  cells showing signs of apoptosis (TUNEL): 5.97±1.54%
